Each structure is given as a SMILES string.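 In this assay, cells in 96-well plates receive the compound at five concentrations for 48 hours. Endpoints are linearly interpolated between the surrounding concentrations. GI50: concentration for 50% inhibition of growth. TGI denotes the concentration required for complete inhibition of growth.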

Here are results for 16 molecules from PubChem BioAssay (NCI).

Among the test systems are ACHN renal; IGROV1 ovarian; NCI-H522 lung; RXF 393 renal; SF-539 CNS; SNB-19 CNS; SR leukemia; T-47D breast; MCF7 breast; MDA-MB-231 breast.
What all share (assay): NCI tumour cell line growth inhibition, 48 h

Regarding `COc1cc(CCc2ccc(OCCN(C)C)cc2)cc(OC)c1OC`, the TGI in the test with ACHN renal, with IGROV1 ovarian, in the test on NCI-H522 lung, in the test with RXF 393 renal, in the test on SF-539 CNS and with SNB-19 CNS was more than 100 µM in each case. In the test on SR leukemia, the TGI is more than 100 µM.
For `Cn1c(=O)nc2n(-c3ccc(Cl)cc3)c3ccc(Cl)cc3nc-2c1=O`, the TGI was 51.1 µM in the test with IGROV1 ovarian, 21.3 µM in the test with NCI-H522 lung, 7.93 µM with RXF 393 renal and 58 µM in the test with SR leukemia.
As for `Cc1cnc2c(C)ccc([N+](=O)[O-])c2c1NCCCN(C)C`, the TGI in the test with ACHN renal, in the test with IGROV1 ovarian, with NCI-H522 lung, with SF-539 CNS, in the test with SNB-19 CNS and in the test on SR leukemia was more than 100 µM each time.
As for `Cc1ccc(-[n+]2c3cc(N)c(C)cc3nc3cc(C)c(Nc4ccccc4)cc32)cc1`, the GI50 was 0.107 µM in the test on ACHN renal, 0.166 µM with IGROV1 ovarian, 0.249 µM in the test with NCI-H522 lung and 0.0886 µM in the test on T-47D breast. In addition, the TGI in the test on ACHN renal worked out at 1.17 µM; in the test on IGROV1 ovarian, 1.54 µM; in the test on NCI-H522 lung, 0.788 µM; in the test on T-47D breast, 1.02 µM.
Take `Nn1c(-c2ccccc2)nc2ccc(Br)cc2c1=O`: the TGI in the test on ACHN renal, with IGROV1 ovarian, in the test with NCI-H522 lung, with SF-539 CNS and with SNB-19 CNS was more than 100 µM each time.
Take `O=C1C(=O)N(C(=O)c2ccc(Cl)c(Cl)c2)c2ccccc21`: the TGI in the test on ACHN renal, in the test on IGROV1 ovarian, with RXF 393 renal, in the test with SF-539 CNS, with SNB-19 CNS and in the test on SR leukemia was more than 100 µM throughout.
With `O=C(Oc1ccc(Cl)cc1Cl)c1ccccc1Nc1ccnc(C(F)(F)F)c1`, the GI50 with ACHN renal is 13.2 µM; with IGROV1 ovarian, 17.8 µM; in the test with MCF7 breast, 3.61 µM; in the test with MDA-MB-231 breast, 2.24 µM; in the test on NCI-H522 lung, 4.61 µM; with SF-539 CNS, 3.77 µM. Besides, in the test with SR leukemia, the GI50 is 0.772 µM. Besides, the TGI in the test on ACHN renal was 27 µM; in the test with IGROV1 ovarian, more than 100 µM; with MCF7 breast, 17.2 µM; with MDA-MB-231 breast it was 7.92 µM; in the test with NCI-H522 lung it was 36 µM; with SF-539 CNS it was 12 µM. In the test with SR leukemia, this molecule gave a TGI of more than 100 µM.
As to `CC1=C(C)C(=O)c2c(cc3ccc4ccccc4n23)C1=O`, the TGI in the test with ACHN renal, with IGROV1 ovarian, in the test on RXF 393 renal, in the test with SF-539 CNS, in the test with SNB-19 CNS and with SR leukemia was more than 100 µM throughout.
Regarding `C=C1C(=O)O[C@H]2[C@H]1CC/C(COC(=O)c1cc3cc(F)ccc3[nH]1)=C\CC[C@@]1(C)O[C@@H]21`, the GI50 with ACHN renal was 1.46 µM; in the test with IGROV1 ovarian, 1.44 µM; with MCF7 breast, 1.02 µM; in the test on MDA-MB-231 breast, 1.59 µM; in the test on NCI-H522 lung, 1.66 µM; in the test on RXF 393 renal, 1.47 µM. Further, the GI50 is 1.55 µM with SF-539 CNS, 5.04 µM in the test on SNB-19 CNS and 2.03 µM in the test with SR leukemia. The TGI worked out at 2.94 µM with ACHN renal; 3.14 µM with IGROV1 ovarian; 3.75 µM in the test on MCF7 breast; 3.5 µM in the test with MDA-MB-231 breast; 3.38 µM in the test on NCI-H522 lung; 2.87 µM in the test on RXF 393 renal. In addition, the TGI turned out to be 3.19 µM in the test with SF-539 CNS, 21 µM in the test on SNB-19 CNS and 17.6 µM with SR leukemia.
For `O=C(c1ccccc1)C(c1ccccc1)C1(O)C(=O)Nc2c(Cl)cc(Cl)cc21` (stereo not drawn), the TGI came to 33.1 µM in the test with ACHN renal, 34.1 µM in the test on NCI-H522 lung, 34.4 µM in the test on RXF 393 renal and 55.3 µM in the test on SNB-19 CNS.
Take `O=C(c1ccccc1)C(C(=O)c1ccccc1)C1(O)C(=O)c2ccccc2C1=O`: the TGI is more than 100 µM in the test with ACHN renal; more than 100 µM with IGROV1 ovarian; 42.2 µM in the test on NCI-H522 lung; 0.889 µM in the test on RXF 393 renal; more than 100 µM with SF-539 CNS; more than 100 µM in the test on SNB-19 CNS. The molecule also gave a TGI with SR leukemia of more than 100 µM.
In the case of `Cc1nc2c(nc1C)C(=O)c1cc(O)ccc1C2=O`, the TGI with ACHN renal, in the test on IGROV1 ovarian, with NCI-H522 lung, with RXF 393 renal, in the test with SF-539 CNS and in the test on SNB-19 CNS was more than 100 µM throughout. In the test on SR leukemia, this molecule gave a TGI of more than 100 µM.
In the case of `O=C1CC(O)C=C1Nc1ccc(Cl)cc1` (stereo not drawn), the TGI in the test on ACHN renal is more than 100 µM; in the test with IGROV1 ovarian, more than 100 µM; in the test on NCI-H522 lung, 48.4 µM; in the test with RXF 393 renal it was more than 100 µM; in the test on SF-539 CNS, more than 100 µM; in the test with SNB-19 CNS, more than 100 µM. Besides, the TGI with SR leukemia was 90.9 µM.
Take `O=C(CNc1nncs1)NO`: the TGI in the test on ACHN renal, in the test on IGROV1 ovarian, in the test on NCI-H522 lung, with RXF 393 renal, with SF-539 CNS and in the test on SNB-19 CNS was more than 100 µM in each case.
On to `CC1OC(OCC2OC(Oc3c(-c4ccc(O)cc4)oc4cc(O)cc(O)c4c3=O)C(OC3OCC(O)(CO)C3O)C(O)C2O)C(O)C(O)C1O` (stereo not drawn), for which the TGI in the test with ACHN renal, in the test with IGROV1 ovarian, in the test with NCI-H522 lung, in the test with SF-539 CNS, with SNB-19 CNS and in the test on SR leukemia was more than 100 µM throughout.
On to `CC[C@H](C)N(CCN)C(=O)c1cc2ccccc2c(-c2ccccc2Cl)n1`, for which the TGI in the test with ACHN renal was found to be 28.1 µM; in the test on IGROV1 ovarian, 26.2 µM; in the test with NCI-H522 lung, 34 µM; in the test with RXF 393 renal it was 19.7 µM; in the test on SF-539 CNS it was 6.5 µM; with SNB-19 CNS it was 30.2 µM. In addition, in the test on SR leukemia, the TGI was 28.1 µM.
